Laboratory results taken from ChEMBL document CHEMBL1149965, “Synthesis and biological evaluation of conformationally constrained bicyclic and tricyclic balanol analogues as inhibitors of protein kinase C” (Bioorg Med Chem Lett, 1995).

Tests used:
[1] = molecular target: Protein kinase C delta type (Homo sapiens, UniProt Q05655); assay: Inhibition of Protein kinase C delta
[2] = molecular target: Protein kinase C alpha type (Homo sapiens, UniProt P17252); assay: Inhibition of Protein kinase C alpha
[3] = molecular target: Protein kinase C eta type (Homo sapiens, UniProt P24723); assay: Inhibition of Protein kinase C eta
[4] = molecular target: T1, Protein kinase C beta type (Homo sapiens, UniProt P05771); assay: Inhibition of Protein kinase C beta 2
[5] = molecular target: T2, Protein kinase C zeta type (Homo sapiens, UniProt Q05513); assay: Inhibition of Protein kinase C zeta
T2 sequence (Q05513 whole entry): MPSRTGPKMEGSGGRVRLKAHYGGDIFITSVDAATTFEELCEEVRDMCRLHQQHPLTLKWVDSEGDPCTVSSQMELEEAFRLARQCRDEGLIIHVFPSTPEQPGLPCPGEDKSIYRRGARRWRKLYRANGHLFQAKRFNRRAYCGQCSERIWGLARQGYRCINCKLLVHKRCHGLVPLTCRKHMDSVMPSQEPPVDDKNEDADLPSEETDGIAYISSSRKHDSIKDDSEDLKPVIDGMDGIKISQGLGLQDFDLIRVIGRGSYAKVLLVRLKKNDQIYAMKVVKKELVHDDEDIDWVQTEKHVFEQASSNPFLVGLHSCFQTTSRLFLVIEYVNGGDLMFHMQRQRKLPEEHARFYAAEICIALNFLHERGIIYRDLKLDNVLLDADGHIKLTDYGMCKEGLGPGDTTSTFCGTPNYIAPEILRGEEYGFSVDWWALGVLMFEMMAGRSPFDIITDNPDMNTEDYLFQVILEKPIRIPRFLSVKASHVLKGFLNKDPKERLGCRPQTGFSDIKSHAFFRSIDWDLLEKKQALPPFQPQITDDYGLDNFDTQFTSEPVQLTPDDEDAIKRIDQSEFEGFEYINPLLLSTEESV

[6] = molecular target: Protein kinase C gamma type (Homo sapiens, UniProt P05129); assay: Inhibition Protein kinase C gamma
[7] = molecular target: cAMP-dependent protein kinase (PKA) (Homo sapiens, UniProt P22694+P17612+P22612); assay: Inhibition of Protein Kinase A; format: protein assay
[8] = molecular target: T3, Protein kinase C epsilon type (Homo sapiens, UniProt Q02156); assay: Inhibition of Protein kinase C epsilon
T3 sequence (Q02156 whole entry): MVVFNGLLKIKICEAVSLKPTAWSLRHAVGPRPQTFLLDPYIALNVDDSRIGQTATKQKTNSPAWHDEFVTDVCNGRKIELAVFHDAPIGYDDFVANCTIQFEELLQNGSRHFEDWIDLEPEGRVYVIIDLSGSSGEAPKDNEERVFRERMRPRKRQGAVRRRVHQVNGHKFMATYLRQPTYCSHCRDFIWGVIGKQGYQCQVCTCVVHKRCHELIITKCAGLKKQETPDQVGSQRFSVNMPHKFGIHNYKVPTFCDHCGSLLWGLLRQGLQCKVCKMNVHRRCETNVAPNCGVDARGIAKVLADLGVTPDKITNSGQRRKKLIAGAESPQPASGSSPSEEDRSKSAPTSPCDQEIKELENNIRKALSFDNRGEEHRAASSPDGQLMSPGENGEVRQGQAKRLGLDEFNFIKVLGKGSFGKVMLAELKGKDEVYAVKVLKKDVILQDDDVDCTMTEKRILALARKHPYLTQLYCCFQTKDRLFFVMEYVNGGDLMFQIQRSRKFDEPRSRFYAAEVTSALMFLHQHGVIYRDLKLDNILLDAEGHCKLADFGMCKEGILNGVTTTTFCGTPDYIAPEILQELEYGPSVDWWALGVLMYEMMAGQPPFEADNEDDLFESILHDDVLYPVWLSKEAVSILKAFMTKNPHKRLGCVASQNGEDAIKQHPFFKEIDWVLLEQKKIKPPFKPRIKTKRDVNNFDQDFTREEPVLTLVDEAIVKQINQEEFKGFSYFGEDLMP

[9] = molecular target: T1, Protein kinase C beta type; assay: Inhibition of Protein kinase C beta 1

Chain of Protein kinase C delta type (Q05655 whole entry): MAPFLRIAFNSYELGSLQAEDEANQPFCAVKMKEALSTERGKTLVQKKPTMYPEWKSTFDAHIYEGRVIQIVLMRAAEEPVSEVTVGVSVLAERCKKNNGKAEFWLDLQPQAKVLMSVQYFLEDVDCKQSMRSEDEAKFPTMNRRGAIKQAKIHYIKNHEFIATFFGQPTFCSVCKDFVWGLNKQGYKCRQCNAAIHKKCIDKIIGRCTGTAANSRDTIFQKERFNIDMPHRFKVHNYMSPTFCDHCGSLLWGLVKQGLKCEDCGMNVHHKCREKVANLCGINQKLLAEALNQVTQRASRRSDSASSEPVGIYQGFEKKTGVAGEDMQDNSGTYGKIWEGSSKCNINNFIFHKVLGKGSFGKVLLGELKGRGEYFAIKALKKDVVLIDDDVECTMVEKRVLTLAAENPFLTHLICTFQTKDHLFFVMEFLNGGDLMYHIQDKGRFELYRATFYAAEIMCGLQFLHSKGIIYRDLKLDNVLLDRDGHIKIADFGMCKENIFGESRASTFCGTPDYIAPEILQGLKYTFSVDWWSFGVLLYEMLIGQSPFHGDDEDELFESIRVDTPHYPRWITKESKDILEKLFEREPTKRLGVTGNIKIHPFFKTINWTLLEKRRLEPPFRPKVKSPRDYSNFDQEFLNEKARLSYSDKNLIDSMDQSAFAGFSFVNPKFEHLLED
Chain of Protein kinase C eta type (P24723 whole entry): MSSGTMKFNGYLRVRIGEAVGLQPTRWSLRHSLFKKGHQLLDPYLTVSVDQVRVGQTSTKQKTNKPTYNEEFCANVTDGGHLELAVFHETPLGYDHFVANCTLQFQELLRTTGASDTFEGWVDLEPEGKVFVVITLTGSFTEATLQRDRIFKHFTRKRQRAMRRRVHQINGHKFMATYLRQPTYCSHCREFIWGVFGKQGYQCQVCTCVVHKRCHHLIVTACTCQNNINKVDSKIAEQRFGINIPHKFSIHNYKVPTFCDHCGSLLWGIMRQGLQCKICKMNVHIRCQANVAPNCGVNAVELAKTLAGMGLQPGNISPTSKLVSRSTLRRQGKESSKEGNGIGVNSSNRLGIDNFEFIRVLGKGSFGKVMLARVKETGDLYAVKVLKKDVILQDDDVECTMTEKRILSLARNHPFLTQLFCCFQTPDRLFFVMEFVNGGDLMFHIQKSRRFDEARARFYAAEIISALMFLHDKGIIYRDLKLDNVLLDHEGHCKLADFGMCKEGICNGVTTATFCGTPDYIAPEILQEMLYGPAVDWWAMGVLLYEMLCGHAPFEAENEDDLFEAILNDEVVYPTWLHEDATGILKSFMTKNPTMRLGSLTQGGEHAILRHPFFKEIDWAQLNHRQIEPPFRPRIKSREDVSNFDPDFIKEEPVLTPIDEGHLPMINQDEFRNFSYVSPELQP
T1 sequence (P05771 whole entry): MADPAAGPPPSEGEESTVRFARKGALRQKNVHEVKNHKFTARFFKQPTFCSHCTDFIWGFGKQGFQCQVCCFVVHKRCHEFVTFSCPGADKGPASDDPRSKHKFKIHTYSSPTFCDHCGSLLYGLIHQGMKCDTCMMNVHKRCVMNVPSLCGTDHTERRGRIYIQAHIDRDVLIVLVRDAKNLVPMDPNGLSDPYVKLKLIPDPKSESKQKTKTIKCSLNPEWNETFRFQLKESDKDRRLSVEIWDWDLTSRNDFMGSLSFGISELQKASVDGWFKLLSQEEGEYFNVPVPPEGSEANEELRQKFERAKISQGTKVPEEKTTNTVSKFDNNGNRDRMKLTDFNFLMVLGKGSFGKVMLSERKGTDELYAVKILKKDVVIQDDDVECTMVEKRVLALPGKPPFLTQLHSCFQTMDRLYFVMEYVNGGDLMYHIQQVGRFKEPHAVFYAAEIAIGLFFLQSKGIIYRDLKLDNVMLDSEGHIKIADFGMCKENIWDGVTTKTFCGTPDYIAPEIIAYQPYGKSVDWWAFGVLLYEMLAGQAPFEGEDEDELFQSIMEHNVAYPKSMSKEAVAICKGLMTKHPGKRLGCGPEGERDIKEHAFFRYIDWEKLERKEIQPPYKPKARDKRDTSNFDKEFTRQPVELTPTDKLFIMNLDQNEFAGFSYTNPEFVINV

## CC1(C)C2CCC1(C)C(OC(=O)c1cc(O)c(C(=O)c3c(O)cccc3C(=O)O)c(O)c1)C2NC(=O)c1ccc(O)cc1 (stereo not drawn)
[1]
  IC50: 340 nM
[2]
  IC50: 410 nM
[3]
  IC50: 310 nM
[4]
  IC50: 80 nM
[5]
  IC50: > 50000 nM
[6]
  IC50: 210 nM
[7]
  IC50: 26000 nM
[8]
  IC50: 3600 nM
[9]
  IC50: 310 nM

## O=C(N[C@@H]1CNCCCC1OC(=O)c1cc(O)c(C(=O)c2c(O)cccc2C(=O)O)c(O)c1)c1ccc(O)cc1 (mixture of isomers)
[1]
  IC50: 32 nM
[2]
  IC50: 74 nM
[3]
  IC50: 22 nM
[4]
  IC50: 44 nM
[5]
  IC50: 3500 nM
[6]
  IC50: 34 nM
[9]
  IC50: 32 nM

## O=C(NC1CNC[C@@H]1OC(=O)c1cc(O)c(C(=O)c2c(O)cccc2C(=O)O)c(O)c1)c1ccc(O)cc1 (mixture of isomers)
[1]
  IC50: 5 nM
[2]
  IC50: 22 nM
[3]
  IC50: 4 nM
[4]
  IC50: 33 nM
[5]
  IC50: > 150 nM
[6]
  IC50: 14 nM
[7]
  IC50: 70 nM
[8]
  IC50: 15 nM
[9]
  IC50: 17 nM

## O=C(NC1CCC[C@@H]1OC(=O)c1cc(O)c(C(=O)c2c(O)cccc2C(=O)O)c(O)c1)c1ccc(O)cc1 (mixture of isomers)
[1]
  IC50: 1 nM
[2]
  IC50: 40 nM
[3]
  IC50: 1 nM
[4]
  IC50: 50 nM
[6]
  IC50: 10 nM
[8]
  IC50: 50 nM
[9]
  IC50: 40 nM

## O=C(NC1C2CCC(C2)C1OC(=O)c1cc(O)c(C(=O)c2c(O)cccc2C(=O)O)c(O)c1)c1ccc(O)cc1 (racemic)
[1]
  IC50: 20 nM
[2]
  IC50: 55 nM
[3]
  IC50: 20 nM
[4]
  IC50: 30 nM
[6]
  IC50: 35 nM
[7]
  IC50: 1900 nM
[8]
  IC50: 30 nM
[9]
  IC50: 45 nM

## O=C(NC1C2CCC(C2)C1OC(=O)c1cc(O)c(C(=O)c2c(O)cccc2C(=O)O)c(O)c1)c1ccc(O)cc1 (stereo in doubt)
[1]
  IC50: 3500 nM
[2]
  IC50: 24000 nM
[3]
  IC50: 4500 nM
[4]
  IC50: 6900 nM
[6]
  IC50: 10000 nM
[7]
  IC50: > 50000 nM
[8]
  IC50: 1500 nM
[9]
  IC50: 17000 nM

## CN1C2CCC1C(NC(=O)c1ccc(O)cc1)C(OC(=O)c1cc(O)c(C(=O)c3c(O)cccc3C(=O)O)c(O)c1)C2 (stereo in doubt; anti)
[1]
  IC50: 5000 nM
[2]
  IC50: 34000 nM
[3]
  IC50: 2800 nM
[4]
  IC50: 14000 nM
[5]
  IC50: > 50000 nM
[6]
  IC50: 4600 nM
[7]
  IC50: > 50000 nM
[8]
  IC50: 27000 nM
[9]
  IC50: 4400 nM

## O=C(NC1CN2CCC(CC2)C1OC(=O)c1cc(O)c(C(=O)c2c(O)cccc2C(=O)O)c(O)c1)c1ccc(O)cc1 (stereo in doubt; anti)
[1]
  IC50: 112 nM
[2]
  IC50: 415 nM
[3]
  IC50: 26 nM
[4]
  IC50: 69 nM
[6]
  IC50: 170 nM
[7]
  IC50: 2000 nM
[8]
  IC50: 170 nM
[9]
  IC50: 26 nM

## O=C(NC1C2CC(C3CCCC32)C1OC(=O)c1cc(O)c(C(=O)c2c(O)cccc2C(=O)O)c(O)c1)c1ccc(O)cc1 (stereo in doubt; anti)
[1]
  IC50: 50 nM
[2]
  IC50: 100 nM
[3]
  IC50: 50 nM
[4]
  IC50: 30 nM
[6]
  IC50: 50 nM
[7]
  IC50: 32000 nM
[8]
  IC50: 970 nM
[9]
  IC50: 150 nM

## CN1C2CCC1C(NC(=O)c1ccc(O)cc1)C(OC(=O)c1cc(O)c(C(=O)c3c(O)cccc3C(=O)O)c(O)c1)C2 (stereo in doubt; syn)
[1]
  IC50: 3800 nM
[2]
  IC50: 35000 nM
[3]
  IC50: 2500 nM
[4]
  IC50: 22000 nM
[5]
  IC50: > 50000 nM
[6]
  IC50: 16000 nM
[7]
  IC50: > 50000 nM
[8]
  IC50: 49000 nM
[9]
  IC50: 22000 nM

## O=C(NC1CN2CCC(CC2)C1OC(=O)c1cc(O)c(C(=O)c2c(O)cccc2C(=O)O)c(O)c1)c1ccc(O)cc1 (stereo in doubt; syn)
[1]
  IC50: 1000 nM
[2]
  IC50: 12000 nM
[3]
  IC50: 490 nM
[4]
  IC50: 34000 nM
[6]
  IC50: 4600 nM
[7]
  IC50: > 50000 nM
[8]
  IC50: 14000 nM
[9]
  IC50: 6300 nM

## O=C(NC1C2CC(C3CCCC32)C1OC(=O)c1cc(O)c(C(=O)c2c(O)cccc2C(=O)O)c(O)c1)c1ccc(O)cc1 (stereo in doubt; syn)
[1]
  IC50: 2000 nM
[2]
  IC50: 2700 nM
[3]
  IC50: 1900 nM
[4]
  IC50: 2100 nM
[6]
  IC50: 1600 nM
[7]
  IC50: > 50000 nM
[8]
  IC50: 40000 nM
[9]
  IC50: 3300 nM
